Assay results from US9133104B2 (Chroma Therapeutics Ltd., priority 2005, dated 2015).

What was measured:
[1] = molecular target: T1, histone deacetylase activity (HeLa nuclear extract); test: HDAC fluorescent activity assay (Biomol Fluor de Lys), HeLa nuclear extract; assay type: biochemical; settings: Fluor de Lys substrate, IC50 range
T1 construct: Histone deacetylase activity from crude nuclear extract derived from HeLa cells was used for screening
Experimental: The ability of compounds to inhibit histone deacetylase activities was measured using the commercially available HDAC fluorescent activity assay from Biomol. In brief, the Fluor de Lys™ substrate, a lysine with an epsilon-amino acetylation, is incubated with the source of histone deacetylase activity (HeLa nuclear extract) in the presence or absence of inhibitor. Deacetylation of the substrate sensitises the substrate to Fluor de Lys™ developer, which generates a fluorophore. Thus, incubation of the substrate with a source of HDAC activity results in an increase in signal that is diminished in the presence of an HDAC inhibitor.
Data are expressed as a percentage of the control, measured in the absence of inhibitor, with background signal being subtracted from all samples, as follows:— % activity=((S^i−B)/(S^o−B))×100 where S^i is the signal in the presence of substrate, enzyme and inhibitor, S^o is the signal in the presence of substrate, enzyme and the vehicle in which the inhibitor is dissolved, and B is the background signal measured in the absence of enzyme.
IC50 values were determined by non-linear regression analysis, after fitting the results of eight data points to the equation for sigmoidal dose response with variable slope (% activity against log concentration of compound), using Graphpad Prism software.
Histone deacetylase activity from crude nuclear extract derived from HeLa cells was used for screening. The preparation, purchased from 4C (Seneffe, Belgium), was prepared from HeLa cells harvested whilst in exponential growth phase. The nuclear extract is prepared according to Dignam JD1983 Nucl. Acid. Res. 11, 1475-1489, snap frozen in liquid nitrogen and stored at −80° C. The final buffer composition was 20 mM Hepes, 100 mM KCl, 0.2 mM EDTA, 0.5 mM DTT, 0.2 mM PMSF and 20% (v/v) glycerol.

Hela cancer cell line = test: Cell inhibition assay (SRB cell viability), Hela; assay type: cell-based; settings: Homo sapiens, HeLa, 72 h, Hela cells, IC50 range
Experimental: The corresponding cancer cell lines (Hela, U937 and HUT) growing in log phase were harvested and seeded at 1000 cells/well (200 ul final volume) into 96-well tissue culture plates. Following 24 h of cell growth cells were treated with compounds (final concentration of 20 uM). Plates were then re-incubated for a further 72 h before a sulphorhodamine B (SRB) cell viability assay was conducted according to Skehan 1990 J Natl Canc Inst 82, 1107-1112.
Data were expressed as a percentage inhibition of the control, measured in the absence of inhibitor, as follows:— % inhibition=100−((S^i/S^o)×100) where S^i is the signal in the presence of inhibitor and S^o is the signal in the presence of DMSO. IC50 values were determined by non-linear regression analysis, after fitting the results of eight data points to the equation for sigmoidal dose response with variable slope (% activity against log concentration of compound), using Graphpad Prism software. […] NT=Not tested

| Structure (SMILES) | IC50 [1] [nM] | IC50 (Hela cancer cell line) [nM] |
| --- | --- | --- |
| O=C(CCCCCCC(=O)N1Cc2ccccc2C[C@H]1C(=O)N[C@H](C(=O)O)c1ccccc1)NO [Compound 45, (S)-{[(S)-2-(7-Hydroxycarbamoyl-heptanoyl)-1,2,3,4-tetrahydro-isoquinoline-3-carbonyl]-amino}-phenyl-acetic acid] | > 1000 | > 3300 |
| O=C(NO)c1cc2ccc(CNCC3CCC(CN[C@H](C(=O)O)c4ccccc4)CC3)cc2s1 (stereo partly drawn) [Compound 127, (S)-[(4-{[(2-Hydroxycarbamoyl-benzo[b]thiophen-6-ylmethyl)-amino]-methyl}-cyclohexylmethyl)-amino]-phenyl-acetic acid] | 101 to 1000 | – |
| O=C(CCCCCNC(=O)c1cccc(CN[C@H](C(=O)O)c2ccccc2)c1)NO [Compound 70, (S)-[3-(5-Hydroxycarbamoyl-pentylcarbamoyl)-benzylamino]-phenyl-acetic acid] | 101 to 1000 | > 3300 |
| O=C(CCCCCCC(=O)Nc1cccc(C(=O)N[C@H](C(=O)O)c2ccccc2)c1)NO [Compound 61, (S)-[3-(7-Hydroxycarbamoyl-heptanoylamino)-benzoylamino]phenyl-acetic acid] | 101 to 1000 | > 3300 |
| C[C@H](NCc1ccc(CNCc2ccc3cc(C(=O)NO)sc3c2)cc1)C(=O)O [Compound 119, (S)-2-(4-{[(2-Hydroxycarbamoyl-benzo[b]thiophen-6-ylmethyl)-amino]-methyl}-benzylamino)-propionic acid] | < 100 | – |
| CC(C)C[C@H](NCc1cccc(NC(=O)CCCCCCC(=O)NO)c1)C(=O)O [Compound 38, (S)-2-[3-(7-Hydroxycarbamoyl-heptanoylamino)-benzylamino]-4-methyl-pentanoic acid] | 101 to 1000 | – |
| O=C(CCCCCCC(=O)Nc1cccc(OCCCC(=O)N[C@H](C(=O)O)c2ccccc2)c1)NO [Compound 93, (S)-{4-[3-(7-Hydroxycarbamoyl-heptanoylamino)-phenoxy]-butyrylamino}-phenyl-acetic acid] | < 100 | – |
| O=C(Cc1ccc(OCCCC(=O)N[C@@H](Cc2ccccc2)C(=O)O)cc1)Nc1ccc2sc(C(=O)NO)cc2c1 [Compound 103, (S)-2-(4-{4-[(2-Hydroxycarbamoyl-benzo[b]thiophen-5-ylcarbamoyl)-methyl]-phenoxy}-butyrylamino)-3-phenyl-propionic acid] | < 100 | – |
| O=C(CCCCCCC(=O)Nc1cccc(COC(=O)N[C@@H](Cc2ccccc2)C(=O)O)c1)NO [Compound 95, (S)-2-[3-(7-Hydroxycarbamoyl-heptanoylamino)-benzyloxycarbonylamino]3-phenyl-propionic acid] | 101 to 1000 | – |
| CC(C)C[C@H](NCc1ccc(CNCc2ccc3cc(C(=O)NO)sc3c2)cc1)C(=O)O [Compound 123, (S)-2-(4-{[(2-Hydroxycarbamoyl-benzo[b]thiophen-6-ylmethyl)-amino]-methyl}-benzylamino)-4-methyl-pentanoic acid] | < 100 | – |
| O=C(CCCCCCC(=O)Nc1cccc(CNC(=O)N[C@@H](Cc2ccccc2)C(=O)O)c1)NO [Compound 82, (S)-2-{3-[3-(7-Hydroxycarbamoyl-heptanoylamino)-benzyl]-ureido}-3-phenyl-propionic acid] | 101 to 1000 | – |
| CC(C)C[C@H](NC(=O)c1ccc(NC(=O)CCCCCCC(=O)NO)cc1)C(=O)O [Compound 99, (S)-2-[4-(7-Hydroxycarbamoyl-heptanoylamino)-benzoylamino]-4-methyl-pentanoic acid] | > 1000 | – |
| O=C(CCCCCCC(=O)Nc1cccc(OCCN[C@@H](Cc2ccccc2)C(=O)O)c1)NO [Compound 74, (S)-2-{2-[3-(7-Hydroxycarbamoyl-heptanoylamino)-phenoxy]-ethylamino}-3-phenyl-propionic acid] | 101 to 1000 | – |
| CC(C)C[C@H](NCC1CCC(CNCc2ccc3cc(C(=O)NO)sc3c2)CC1)C(=O)O (stereo partly drawn) [Compound 129, (S)-2-[(4-{[(2-Hydroxycarbamoyl-benzo[b]thiophen-6-ylmethyl)-amino]-methyl}-cyclohexylmethyl)-amino]-4-methyl-pentanoic acid] | 101 to 1000 | – |
| O=C(CCCCCCC(=O)Nc1cccc(CNC(=O)N[C@H](C(=O)O)c2ccccc2)c1)NO [Compound 80, (S)-{3-[3-(7-Hydroxycarbamoyl-heptanoylamino)-benzyl]-ureido}-phenyl-acetic acid] | 101 to 1000 | – |
| O=C(NO)c1cc2ccc(CNCc3ccc(CN4CCC[C@H]4C(=O)O)cc3)cc2s1 [Compound 112, (S)-1-(4-{[(2-Hydroxycarbamoyl-benzo[b]thiophen-6-ylmethyl)-amino]-methyl}-benzyl)-pyrrolidine-2-carboxylic acid] | 101 to 1000 | – |
| O=C(NO)c1cc2ccc(CNCc3ccc(CN[C@H](C(=O)O)C4CCCCC4)cc3)cc2s1 [Compound 117, (S)-Cyclohexyl-(4-{[(2-hydroxycarbamoyl-benzo[b]thiophen-6-ylmethyl)-amino]-methyl}-benzylamino)-acetic acid] | < 100 | – |
| CC(C)C[C@H](NC(=O)c1cccc(NC(=O)CCCCCCC(=O)NO)c1)C(=O)O [Compound 63, (S)-2-[3-(7-Hydroxycarbamoyl-heptanoylamino)-benzoylamino]-4-methyl-pentanoic acid] | 101 to 1000 | – |
| O=C(NO)c1cc2ccc(CNCc3ccc(CN[C@@H](Cc4ccccc4)C(=O)O)cc3)cc2s1 [Compound 105, (S)-2-(4-{[(2-Hydroxycarbamoyl-benzo[b]thiophen-6-ylmethyl)-amino]-methyl}-benzylamino)-3-phenyl-propionic] | < 100 | – |
| CC(C)(C)SC[C@H](NCc1ccc(CNCc2ccc3cc(C(=O)NO)sc3c2)cc1)C(=O)O [Compound 114, (R)-3-tert-Butylsulfanyl-2-(4-{[(2-hydroxycarbamoyl-benzo[b]thiophen-6-ylmethyl)-amino]-methyl}-benzylamino)-propionic acid] | 101 to 1000 | – |
| O=C(O)CNCc1ccc(CNCc2ccc3cc(C(=O)NO)sc3c2)cc1 [Compound 121, (4-{[(2-Hydroxycarbamoyl-benzo[b]thiophen-6-ylmethyl)-amino]-methyl}-benzylamino)-acetic acid] | < 100 | – |
| O=C(CCCCCCC(=O)Nc1ccc(CN[C@@H](C(=O)O)c2ccccc2)cc1)NO [Compound 84, (R)-[4-(7-Hydroxycarbamoyl-heptanoylamino)-benzylamino]-phenyl-acetic acid] | 101 to 1000 | – |
| CC(C)(C)OC[C@H](NCc1ccc(NC(=O)CCCCCCC(=O)NO)cc1)C(=O)O [Compound 90, (S)-3-tert-Butoxy-2-[4-(7-hydroxycarbamoyl-heptanoylamino)-benzylamino]-propionic acid] | 101 to 1000 | – |
| O=C(CCCCCCNC(=O)c1cc2cc(CCC(=O)N[C@@H](Cc3ccccc3)C(=O)O)ccc2[nH]1)NO [Compound 101, (S)-2-{3-[2-(6-Hydroxycarbamoyl-hexylcarbamoyl)-1H-indol-5-yl]-propionylamino}-3-phenyl-propionic acid] | < 100 | – |
| O=C(CCCCCCC(=O)Nc1cccc(CCN[C@H](C(=O)O)c2ccccc2)c1)NO [Compound 72, (S)-{2-[3-(7-Hydroxycarbamoyl-heptanoylamino)-phenyl]-ethylamino}-phenyl-acetic acid] | < 100 | – |
| O=C(CCCCCCC(=O)Nc1ccc(CN[C@H](C(=O)O)C2CCCCC2)cc1)NO [Compound 87, (S)-Cyclohexyl-[4-(7-hydroxycarbamoyl-heptanoylamino)-benzylamino]-acetic acid] | < 100 | – |
| O=C(NO)c1cc2ccc(CNCc3ccc(CN[C@H](C(=O)O)c4ccccc4)cc3)cc2s1 [Compound 125, (S)-(4-{[(2-Hydroxycarbamoyl-benzo[b]thiophen-6-ylmethyl)-amino]-methyl}-benzylamino)-phenyl-acetic acid] | < 100 | – |
| O=C(CCCCCCC(=O)Nc1cccc(OCCCN[C@@H](Cc2ccccc2)C(=O)O)c1)NO [Compound 76, (S)-2-{3-[3-(7-Hydroxycarbamoyl-heptanoylamino)-phenoxy]-propylamino}-3-phenyl-propionic acid] | < 100 | – |
| CC(C)C[C@H](NC(=O)[C@@H]1Cc2ccc(NC(=O)CCCCCCC(=O)NO)cc2CN1)C(=O)O [Compound 97, (S)-2-{[(S)-7-(7-Hydroxycarbamoyl-heptanoylamino)-1,2,3,4-tetrahydro-isoquinoline-3-carbonyl]-amino}-4-methyl-pentanoic acid] | 101 to 1000 | – |
